# According to US12285392B2, “Method for modulating metabolism” (Brightseed, Inc., priority 2018, dated 2025):
# Tests used:
# [1] = test system: diet-induced obese mice; test: Efficacy and tolerability in diet-induced obese mice; format: in vivo
# Procedure: Alkaline Phosphatase (ALP) Quantitation. Increased levels of ALP in blood are considered indicative of liver function abnormalities. Thus, ALP was assayed in accordance with known methods (Kiselyuk, et al. (2012) Chem. Biol. 19(7):806-818). Briefly, prior to sacrifice, blood was drawn and analyzed using a Vet Scan blood analyzer, measuring alkaline phosphatase (ALP, IU/L), alanine aminotransferase (ALT, IU/L), gamma glutamyl transferase (GGT, IU/L), bile acids (BA, μmol/L), total bilirubin (TBIL, mg/dL), albumin (ALB, g/dL), blood urea nitrogen (BUN, mg/dL), and cholesterol (CHOL, mg/dL).
# Triglyceride (TG) Quantitation. TG quantity was assayed using a Triglyceride Colorimetric Assay Kit (Cayman Chemicals; Ann Arbor, MI) according to the manufacturer's instructions.
# Lipid Droplet Size Analysis. All slides were scanned at a magnification of 20× using the Aperio Scanscope FL system (Aperio Technologies Inc.; Vista, CA). The appropriate dyes were assigned and illumination levels were calibrated using a preset procedure; the parameters were saved and applied to all slides. The acquired digital images represented whole tissue sections. Sections were evaluated for image quality. All acquired images were subsequently placed in dedicated project folders, and stored on a designated local server. Selected areas of the slides were selected using Aperio Imagescope (version 12 Aperio Technologies Inc.). For analysis, slides were viewed, whole tissue areas were selected and analyzed using the web-based Image Scope viewer. Slides were quantified using the ‘Color Deconvolution v9’ algorithm for oil redo staining (version 11 Aperio Technologies Inc.). The algorithm was optimized using a preset procedure to maximize the strong red color positive oil droplets signal to noise ratio and the subsequent macro was saved and applied to all slides.
# HNF4α Immunostaining in Organ Samples. Samples were harvested from mice, fixed in 4% paraformaldehyde and embedded in paraffin or O.C.T. freezing media (Sakura Finetek; Torrance, CA) Slides of 5 μm thickness were washed four times with PBS and treated with 0.3% Triton™ in PBS for 10 minutes. Antigen retrieval was carried out with CitriSolv™ (Fisher Scientific; Waltham, MA) for 10 minutes in sub-boiling temperature. After washing with PBS for 10 minutes, slides were incubated in blocking solution with 5% normal donkey serum (Jackson Immuno Research; West Grove, PA) for 60 minutes at room temperature. Cells were fixed in 4% paraformaldehyde for 15 minutes on 4° C. and washed with PBS, treated with 0.3% Triton™ in PBS for 10 minutes and blocked as previously described for slide samples.
# Primary Antibodies. HNF4α antibodies were used (#sc-6556, Santa Cruz Biotechnology; Santa Cruz, CA and #3113, Cell Signaling Technology; Danvers, MA). For fluorescent imaging, samples were incubated with ALEXA FLOUR® 488 green-fluorescent dye or Rhodamine labeled anti-mouse, rabbit or goat and nuclei were counterstained with DAPI (4′,6-diamidino-2-phenylindole) Controls using secondary antibodies alone were used to ensure specificity of immunostaining. Fluorescently labeled sections were analyzed with a conventional inverted microscope (Olympus, PlanFl 40×/0.60) or with a confocal microscope equipped with a krypton/argon laser.
# The experiments were performed to establish feeding and treatment regimen, dosing and administration regimens, as well as to provide evidence of beneficial effects of N-trans-caffeoyltyramine on glucose and lipid homeostasis, hepatic steatosis, β-cell function and hepatocyte function. Twelve mice (10 weeks old) were fed a high-fat diet for four weeks to induce obesity. After four weeks, and while on the high-fat diet, six mice were administered 5% DMSO or 120 mg/kg N-trans-caffeoyltyramine twice a day intraperitoneally for 14 days. One hour after the last i.p. injection of DMSO or N-trans-caffeoyl tyramine, the animals were sacrificed and blood and organ (liver, kidney, gut and pancreas) samples were collected. […]
# [2] = test system: HNF4α mRNA; test: HNF4α mRNA levels by quantitative PCR; format: cell-based; details: FIG. 3
# Procedure: (§1) Expression of Insulin and HNF4α. RNA was purified using a RNEASY® chromatographic separation and isolation kits (Qiagen), and converted to cDNA using the gScript™ cDNA SuperMix (Quanta Biosciences). Q-PCR was conducted with cDNA corresponding to 2 μg of RNA using an Opticon Real-Time System (MJ Research) and QPCR SuperMix (BioPioneer). See All mRNA values were normalized to 18S rRNA values and are expressed as fold changes over vehicle-treated control.
# [3] = test system: insulin mRNA; test: Insulin mRNA levels by quantitative PCR; format: cell-based; details: FIG. 2
# Procedure: as §1
# [4] = pH stability assessment; format: physicochemical; details: pH 2, 7.4, 8.5 and 10, 37° C., 0.5 and 72 hours
# Procedure: pH Stability Assessment. Individual stock solutions were prepared in DMSO at concentrations of 10 mg/mL. Four different buffer solutions were prepared to achieve solutions with a pH of 2, 7.4, 8.5 and 10. For each pH assay, 5 μL of stock solution was added to 245 μL of buffered solution to a 2 mL tube, vortexed and incubated in a 37° C. water bath. At each timepoint, 50 μL aliquots were taken, neutralized and analyzed via HPLC analysis using a DAD detector at 280 nm. The fold change of the peak area at 280 nm was analyzed for the initial and final timepoint, 0.5 and 72 hours, respectively.
# [5] = test system: T6PNE cells; test: Lipid clearance in T6PNE cells (steatosis assay); format: cell-based
# Procedure: T6PNE cells were pretreated for 1 day with 0.06 mM, 0.12 mM or 0.25 mM palmitate at which time 15 μM N-trans-caffeoyltyramine or control (DMSO) was added. Cells were harvested on day 3, 6 and 8 and subjected to staining with Nile Red and Oil Red O. Results are expressed as fold change in Nile Red staining: +palmitate/10% FBS medium (no palmitate)
# Lipid Clearance in HepG2 and T6PNE Cells (Steatosis Assay). The steatosis assay was carried out as described (Kiselyuk, et al. (2012) Chem. Biol. 19(7):806-818) with the exception of the drug concentration, which was 20 μM for N-trans-caffeoyltyramine with 0.25 mM palmitate in HepG2 cell lines, and 10 μM of either N-trans-caffeoyltyramine, N-trans-caffeoyltyramine, or pcoumaroyltyramine, with 0.25 mM palmitate in T6PNE cell lines. Steatosis was assessed using the Oil Red 0 Method for Fats kits (Poly Scientific; Warrington, PA), per manufacturer's guidelines. Briefly, frozen tissue slides or fixed cells were incubated in neat propylene glycol for 2 minutes and Oil Red 0 solution for 15 hours for slides or 1 hour for fixed cells, differentiated in 85% propylene glycol solution for 1 minute, washed twice with distilled water and stained in Hematoxylin of 10 seconds. Slides were mounted with glycerin jelly mounting medium.
smiles,measurement,setting,value
O=C(/C=C/c1ccc(O)c(O)c1)NCCc1ccc(O)cc1 [N-trans-caffeoyltyramine],Lipid accumulation in the liver,[1]; 120 mg/kg twice a day i.p. for 14 days,decreased
same,"Weight loss, sickness or abnormal behaviors compared to control","[1]; 120 mg/kg twice a day i.p. for 14 days, high-fat diet mice","None of the treated mice exhibited weight loss, sickness, or abnormal behaviors"
same,Lipid droplet sizes in the liver,"[1]; 120 mg/kg twice a day i.p. for 14 days, FIG. 8",reduced
same,HNF4α expression in the liver,"[1]; 120 mg/kg twice a day i.p. for 14 days, P=0.0042, FIG. 7",significantly increased
same,HNF4α expression in intestines,[1]; FIG. 12,increased
same,Levels of alkaline phosphatase,"[1]; blood, 120 mg/kg twice a day i.p. for 14 days, FIG. 9",significantly reduced
same,HNF4α expression in the pancreas,"[1]; compared to DMSO control mice, FIG. 11",increased
same,Levels of triglycerides,"[1]; liver, 120 mg/kg twice a day i.p. for 14 days, FIG. 10",significantly reduced
same,HNF4α gene expression,[2],upregulated
same,Insulin gene expression,[3],upregulated
same,pH Stability,[4],Acid Stable
same,Fat accumulation,"[5]; 10 μM, 0.25 mM palmitate",inhibition of fat accumulation
same,Lipid accumulation when palmitate was added prior to compound,"[5]; FIG. 6, 15 μM",reduced lipid accumulation
